One data set relates to P. aeruginosa. Briefly: Determination of MIC. The note with it: lowest concentration at which the inhibitory effect was detectable. The format is cell-based, Pseudomonas aeruginosa. Here is the method: (§1) Minimal inhibitory concentrations (MICs) of purified compounds and commercially available standards were assessed against S. aureus, C. albicans, P. aeruginosa, K. pneumoniae, E. coli, ESBL K. pneumoniae, ESBL E. coli and the two MRSA strains (B337919 and B335466). Stock solutions of 5 × 10^6 μg/l of p-hydroxybenzaldehyde, and phenyllactic acid were prepared using water. Stock solutions of 1 × 10^8 μg/l indole-3-carboxylic acid, PAA and indole-3-acetic acid were prepared using methanol and diluted with water (working solution of 5 × 10^6 μg/l). Stocks of 1 × 10^6 μg/l of cFP and cPM were dissolved in water. […] Methanol and water were used as control.

In the next data set the test system is C. albicans. Briefly: Determination of MIC. The following applies: lowest concentration at which the inhibitory effect was detectable; C. albicans. The format is cell-based, Candida albicans. Here is the method: as §1
Another data set deals with E. coli. Put plainly: Determination of MIC. The format is cell-based, Escherichia coli. The following applies: lowest concentration at which the inhibitory effect was detectable; E. coli. How it is done: as §1
In another data set the test system is ESBL E. coli. Briefly: Determination of MIC. Format: cell-based, Escherichia coli. The note with it: lowest concentration at which the inhibitory effect was detectable; ESBL E. coli. Here is the method: as §1
For data set [1], the system named is MRSA Staphylococcus (S.) aureus B335466. Briefly: Determination of MIC. The format is cell-based. The note with it: lowest concentration at which the inhibitory effect was detectable; MRSA 335. How it is done:
as §1

For data set [2], the system named is MRSA Staphylococcus (S.) aureus B337919. Put plainly: Determination of MIC. Format: cell-based. The following applies: lowest concentration at which the inhibitory effect was detectable; MRSA 337. Here is the method: as §1
The subject of data set [3] is Bacillus subtilis, S. aureus and Micrococcus luteus. Also on record: method as in Jayatilake et al., 1996; Thomas et al., 2010. The note with it: ref Jayatilake et al., 1996; Thomas et al., 2010; cited from earlier work.
Data set [4] deals with human intestinal epithelial (Caco2) cells. Put plainly: Cytotoxicity assay, lactate dehydrogenase release. The format is cell-based. The following applies: compound 2mg/ml, 24 h, LDH. Here is the method: (§2) Cytotoxicity of the fungal extract and the identified compounds was determined measuring lactate dehydrogenase release using human intestinal epithelial (Caco2) and human hepatocytic (HepG2) cells. […] Cells were seeded into 96-well plates (5 × 10^4 cells per well) and incubated until a confluent cell layer had developed. After discarding of the media cells were incubated with 50 μl of media and 50 μl of fungal extract or compound (final concentration: PAA 2 × 10^6 μg/l, 4FP 2 × 10^6 μg/l, ICA 2 × 10^6 μg/l, IAA 2 × 10^5 μg/l, PLA 2 × 10^6 μg/l, cPM 2 × 10^6μg/l and cFP 2 × 10^6 μg/l) for 24 h at 37°C. […] LDH release was measured according to the manufacturer’s protocol (Sigma–Aldrich, USA).

Data set [5] deals with human hepatocytic (HepG2) cells. Briefly: Cytotoxicity assay, lactate dehydrogenase release. The format is cell-based. The note with it: compound 2mg/ml, 24 h, LDH. Here is the method: as §2
For a further data set, the system named is Caco2 cells. Put plainly: XTT assay, metabolic active cells. Format: cell-based, human. The note with it: compound 2mg/ml, XTT. Here is the method:
(§3) In parallel the % of metabolic cells was measured using the XTT [2,3-Bis-(2-methoxy-4-nitro-5-sulfophenyl)-2H-tetra zolium-5-carboxanilide] assay (Thermo Scientific). Briefly, after treatment with the fungal extract or the different compounds cells were incubated with XTT and phenanzine methosulfate (Thermo Scientific) for 2 h. Absorbance was measured at 450 nm and % of metabolic active cells was calculated versus the control sample (media). As controls we incubated the cells without fungal cultures or compound, and with VPA alone.

Another data set relates to HepG2 cells. Briefly: XTT assay, metabolic active cells. The format is cell-based, human. The note with it: compound 2mg/ml. Here is the method: as §3
The subject of the next data set is S. aureus. Put plainly: Determination of MIC. The format is cell-based, Staphylococcus aureus. The following applies: lowest concentration at which the inhibitory effect was detectable; S. aureus. How it is done: as §1
The test system of another data set is ESBL K. pneumoniae. Put plainly: Determination of MIC. The format is cell-based, Klebsiella pneumoniae. The note with it: lowest concentration at which the inhibitory effect was detectable; ESBL K. pneumoniae. Here is the method:
as §1

The test system of another data set is K. pneumoniae. Briefly: Determination of MIC. The following applies: lowest concentration at which the inhibitory effect was detectable; K. pneumoniae. The format is cell-based, Klebsiella pneumoniae. How it is done:
as §1

The test system of a further data set is all tested organisms. Put plainly: Determination of MIC, statements over all tested organisms. The format is cell-based. The following applies: against the tested microorganisms. How it is done:
as §1

For a further data set, the system named is Caco2 and HepG2 cells. The format is cell-based. The note with it: at the determined MIC concentrations; range over compounds and cell lines. How it is done: as §2

Consider `CSCCC1NC(=O)C2CCCN2C1=O` [cPM, cyclo-(L-proline-L-methionine)], for which the Inhibitory concentration with P. aeruginosa worked out at 5 g/L; with C. albicans it was 5 g/L; with E. coli it was 5 g/L; with ESBL E. coli, 5 g/L; in data set [1] it was 2.5 g/L; in data set [2] it was 2.5 g/L. Further, the Inhibitory concentration with S. aureus worked out at 2.5 g/L; with ESBL K. pneumoniae it was 5 g/L; with K. pneumoniae it was 5 g/L. For the same compound, the antimicrobial activity entry in data set [3] is recorded as “no antimicrobial activity”. Further, the “% of living Caco2 cells” value in [4] was found to be 4.77%. In data set [5], the “% of living HepG2 cells” value was 3.99%. Besides, the “% of metabolic active Caco2 cells” value with Caco2 cells was determined as 99.18%. In the data set on HepG2 cells, the “% of metabolic active HepG2 cells” value stood at 107.47%. In the data set on all tested organisms, this compound returned a growth inhibitory activity of 2 g/L. The dead cells with Caco2 and HepG2 cells is recorded as 3.99–8.61%.

(Values after article PMC4829596 (Frontiers in Microbiology, 2016).)
